Where a name gives a salt, the structure may show the parent alone. Read-outs that look alike come from different tables or passages of the source.

The nature of data set [1]: Crystallisation peak temperature on heating (Tn), DSC. Format: physicochemical. The note with it: for Tn (16° C./min): 1% salt deposited from solution on PET; for Tn (16° C./min) / Tn(comp.)-Tn(PET) (16° C./min): pressed 280 °C 1 minute, heating rate 16 °C/minute; for Tn: 1% salt on PET I.V. 0.73 from solution; for nucleating activity: in words; for Tn(comp.)-Tn(PET) (16° C./min): 1% salt deposited from solution on PET chip; for Tn(composition)-Tn(polyester): PET I.V. 0.73 + 1% salt, 2-roll mill 300 °C 2 min, 10 °C/minute. Here is the method: In one such DSC technique the crystallisation peak temperature difference, Tn(composition)--Tn(polyester) is determined by measuring the crystallisation peak temperatures on heating for the composition in comparison with the polyester of the composition not containing the ionisable salt. The detailed procedure is as follows. Compositions were prepared from the polyester and the additive by mixing on a 2-roll mill at 300° C. for 2 minutes. The sample was taken from the mill and pressed into a film in a compression moulding machine. 10 mg samples of the composition were placed in a capsule, rapidly heated to 290° C. and maintained at that temperature for 1 minute. The capsule was then dropped into water to quench the polymer and prevent crystallisation. The sample was then placed in a Perkin Elmer DSC 2 machine and heated at a rate of 10° C./minute until reaching a temperature of 290° C. The crystallisation peak temperature observed on this heating cycle is recorded and compared with the value for the polyester not containing the additive.
Samples of polyethylene terephthalate (I.V. =0.73) containing 1% of the salts listed in Table 2 were prepared by compounding at 300° C. on a 2-roll mill for 2 minutes. The samples were evaluated to determine Tn(composition-Tn(polyester), the total number of end groups, the number of carboxylate groups and the number of hydroxyl and carboxyl groups.
The salts listed in Table 3 were deposited from solution on the surface of polyethylene terephthalate chip to give a concentration of 1% by weight of salt. The product was dried under vcuum at 96° C. for 3 hours. The compositions were pressed into film using a temperature of 280° C. for 1 minute. The DSC measurements were made after quenching from the melt to prevent crystallisation and using a heating rate of 16° C./minute.
1% by weight of the sodium salt of saccharin was deposited on the surface of granules of a polyethylene terephthalate homopolymer of I.V. =0.73 by evaporating an aqueous solution of the salt from the granules by drying at 96° C. under vacuum for 3 hours. The granules obtained were compression moulded into film by pressing at 280° C. for 60 second. The film was used for measurements of Tn at a heating rate of 16° C./minute.
The effect of the salts listed in Table 4 was determined by taking granules of a polymer of poly(ethylene terephthalate) homopolymer having an intrinsic viscosity of 0.73 and evaporating a solution of the salt in methanol or water from the surface of the granules by drying at 96° C. under vacuum for 3 hours. The proportions of polymer and solution used were such as to give a concentration of 1% of salt by weight of the final dry composition. The granules obtained were compression-moulded into film at 280° C. for various periods of time. The film was used for measurement of Tn as hereinbefore described.
Two samples of polyethylene terephthalate chip (I.V. =0.73) were coated from solution with 1% of the sodium salt of o-hydroxybenzoic acid and the disodium salt of the same acid respectively. After drying for 3 hours in a vacuum oven at 95° C. films were prepared by pressing the products for 1 minute at 280° C.

Data set [2] can be described thus: End group determination. It is filed as physicochemical. On the procedure:
The numbers of hydroxyl and carboxyl groups were also determined according to the procedure given in this paper.
[…] The samples were evaluated to determine Tn(composition-Tn(polyester), the total number of end groups, the number of carboxylate groups and the number of hydroxyl and carboxyl groups.

The nature of data set [3]: Half-crystallisation time (t1/2), isothermal DSC. It is filed as physicochemical. Here is the method: A DSC 2 Perkin Elmer scanning calorimeter was used.
10 mg of the sample of polymer material are placed in a capsule and introduced into the apparatus, wherein the sample is quickly heated to a temperature of 290° C. at which it is maintained during 1 minute.
The molten polymer material is then very quickly cooled by means of liquid air (at a rate of 320° C. per minute) until the crystallisation temperature is reached.
The crystallisation isotherm is registered on a temperature-time graph and the peak appearing on the registered isotherm is taken as the half-crystallisation time (t1/2).

A short description of data set [4]: Solubility parameter δ of the acid. As to conditions: product for the acid.
Data set [5] in a line: ΔT = Tc(cooling) - Tn(heating), DSC. Format: physicochemical. The note with it: 1% salt in PET, 2-roll mill 270 °C 5 min; 10 °C/minute. Here is the method:
An alternative method for assessing the effectiveness of nucleation of an additive is to compare the difference between the value of the crystallisation peak on cooling (Tc) with that on heating (Tn) for a composition containing an ionisable salt. The value obtained from this comparison, Tc(cooling) -Tn(heating) is termed ΔT. […] Samples of polyester together with 1% of the salt under test were mixed in a 2-roll mill at 270° C. for 5 minutes. The sample produced was pressed into 2 mm thick sheets at 270° C. for 3 minutes and then cooled to room temperature. 10 mg of the sample was placed in a capsule and rapidly heated to 290° C. After maintaining this temperature for 1 minute the capsule was quenched in water. The crystallisation peak temperatures on heating (Tn) and cooling (Tc) were determined using heating and cooling rates of 10° C./minute on a Perkin Elmer DSC 2 machine.

Data set [6] can be described thus: Degradation constant K (melt degradation performance). It is filed as physicochemical. On the set-up: unit not given here. As to conditions: 1% salt in PET, 2-roll mill 270 °C 5 min; molten state 290 °C. Here is the method:
The melt degradation performance is a measure of the extent of degradation under molten conditions. A convenient method of quantifying the performance is by measuring the "K value". A method for determining this value in the molten state using an Instron Capillary rheometer is given in a paper by J. Devaux et al in Makromol.
This method is carried out on samples prepared by reacting the salt with the polyester on a 2 roll-mill at a temperature above the melting point of the polyester for 5 minutes and then pressing the product obtained into a 2 mm thick sheet using the same temperature for 3 minutes before cooling to room temperature. The method is described for polyethylene terephthalate but can be readily adapted for other polyesters.
For polyethylene terephthalate the K value in the presence of salt should be less than 60.

[7] abbreviates: 1% salt deposited from solution on PET chip, pressed 280 °C 1 minute.
Setting [8] is: PET I.V. 0.73 + 1% salt, 2-roll mill 300 °C 2 min.

Turning to `O=C([O-])c1cccc2ccccc12.[Na+]`, in data set [1], the “Tn (16° C./min)” value was determined as 111 °C.

As for `O=[PH](O)C1CCCCC1` [Calcium cyclohexyl phosphinate], the “Tn (16° C./min)” value in data set [1] amounted to 129 °C.

Consider `O=C([O-])c1ccc(C(=O)[O-])cc1.[Na+].[Na+]` [Disodium terephthalate, reference compound], for which the Tn in data set [1] (time in press 30 sec at 280 °C) is 141 °C; in data set [1] (time in press 60 sec at 280 °C) it was 140 °C. In data set [1], the nucleating activity result is given as “only slight nucleating activity”.

`O=C(O)c1ccccc1C(=O)O` [Potassium hydrogen orthophthalate, reference compound]: the Tn in data set [1] (time in press 30 sec at 280 °C) was found to be 142.5 °C; in data set [1] (time in press 60 sec at 280 °C), 144.5 °C.

Consider `COC(=O)c1ccc(C(=O)[O-])cc1.[K+]` [Potassium monomethyl terephthalate, reference compound], for which the Tn in data set [1] (time in press 30 sec at 280 °C) is 138.5 °C; in data set [1] (time in press 60 sec at 280 °C), 137.5 °C. For the same compound, the nucleating activity entry in data set [1] is reported as “only slight nucleating activity”.

As for `O=C([O-])c1cccc2c(O)cccc12.[Na+]` [Sodium 5-hydroxy-1-naphthoate], the “Tn (16° C./min)” value in data set [1] turned out to be 132 °C.

For `O=C([O-])c1ccc2cc(O)ccc2c1.[Na+]` [Sodium 6-hydroxy-2-naphthoate], the “Tn (16° C./min)” value in data set [1] worked out at 116 °C.

For the compound `COc1ccc2cc(C(=O)[O-])ccc2c1.[Na+]` [Sodium 6-methoxy-2-naphthoate], the “Tn (16° C./min)” value in data set [1] was 119 °C.

In the case of `O=C([O-])c1cccc2cccc(Br)c12.[Na+]` [Sodium 8-bromo-1-naphthoate], the “Tn (16° C./min)” value in data set [1] turned out to be 124 °C.

Take `COC(=O)c1ccc(C(=O)[O-])cc1.[Na+]` [Sodium monomethyl terephthalate, reference compound]: in data set [1] (time in press 60 sec at 280 °C), the Tn was found to be 132 °C. Further, in data set [1], the nucleating activity result is “only slight nucleating activity”.

For `O=[PH](O)c1ccccc1` [Sodium phenyl phosphinate], the “Tn (16° C./min)” value in data set [1] is 117 °C. In addition, in data set [2] (setting [7]), the “End Groups --COOH” value came to 25 moles × 10^-6 g^-1 and the “End Groups --OH” value was 66 moles × 10^-6 g^-1.

For `O=C(O)c1ccccc1-c1ccccc1` [Sodium salt of 2-biphenylcarboxylic acid], in data set [1], the “Tn(comp.)-Tn(PET) (16° C./min)” value is 22 °C and the “Tn (16° C./min)” value amounted to 121 °C. Further, in data set [2] (setting [7]), the “End Groups --COOH” value is given as 26 moles × 10^-6 g^-1, the “End Groups --OH” value was determined as 60 moles × 10^-6 g^-1 and the “End Groups Total from solution I.V.” value was found to be 133 moles × 10^-6 g^-1.

In the case of `O=C(O)c1ccc2ccccc2c1` [Sodium salt of 2-naphthoic acid], in data set [1], the “Tn(comp.)-Tn(PET) (16° C./min)” value was determined as 25 °C and the “Tn (16° C./min)” value came to 120 °C. Also, in data set [2] (setting [7]), the “End Groups --COOH” value is on record as 31 moles × 10^-6 g^-1, the “End Groups --OH” value is 60 moles × 10^-6 g^-1 and the “End Groups Total from solution I.V.” value is 121 moles × 10^-6 g^-1.

As for `O=C(O)c1ccc(-c2ccccc2)cc1` [Sodium salt of 4-biphenylcarboxylic acid], in data set [1], the “Tn(comp.)-Tn(PET) (16° C./min)” value was 16 °C and the “Tn (16° C./min)” value is 131 °C. Further, in data set [2] (setting [7]), the “End Groups --COOH” value came to 31 moles × 10^-6 g^-1, the “End Groups --OH” value amounted to 61 moles × 10^-6 g^-1 and the “End Groups Total from solution I.V.” value came out at 107 moles × 10^-6 g^-1.

`O=C(O)c1ccccc1[N+](=O)[O-]` [ortho-nitrobenzoic acid]: the “t1/2 (sec) 110° C.” value in data set [3] (110 °C, 1% salt in PET, 2-roll mill 270 °C 5 min, after melting 1 minute at 290 °C) was 65 s. Moreover, the “t1/2 (sec) 120° C.” value in data set [3] (120 °C, 1% salt in PET, 2-roll mill 270 °C 5 min, after melting 1 minute at 290 °C) is 45 s. In data set [4], the “δ × pKH.sbsb.2O” value is 30. For the same compound, in data set [5], the ΔT worked out at 106 °C. The K in data set [6] is listed as 20.

With `O=C([O-])Cc1cccc2ccccc12.[Na+]` [sodium 1-naphthylacetate], in data set [3], the “t1/2 (sec) 110° C.” value was determined as 55 s and the “t1/2 (sec) 120° C.” value amounted to 30 s. In addition, the K in data set [6] is 30.

With `O=C([O-])c1c(Cl)cccc1Cl.[Na+]` [sodium 2,6-dichlorobenzoate], in data set [1], the “Tn(composition)-Tn(polyester)” value turned out to be 25 °C. Besides, in data set [2] (setting [8]), the “% of carboxylate end group” value came to 9.8%, the “End Groups --COOH” value turned out to be 51 moles × 10^-6 g^-1, the “End Groups --OH” value is 56 moles × 10^-6 g^-1 and the “End Groups Carboxylate” value is 15 moles × 10^-6 g^-1. Moreover, the “End Groups Total from solution I.V.” value in data set [2] (setting [8]) came out at 153 moles × 10^-6 g^-1.

`O=C([O-])c1c(O)cccc1O.[Na+]` [sodium 2,6-dihydroxybenzoate]: in data set [1], the “Tn(composition)-Tn(polyester)” value worked out at 24 °C. Besides, in data set [2] (setting [8]), the “% of carboxylate end group” value amounted to 3.9%, the “End Groups --COOH” value is given as 55 moles × 10^-6 g^-1, the “End Groups --OH” value amounted to 69 moles × 10^-6 g^-1 and the “End Groups Carboxylate” value came out at 5 moles × 10^-6 g^-1. Also, in data set [2] (setting [8]), the “End Groups Total from solution I.V.” value came to 127 moles × 10^-6 g^-1.

Regarding `O=C([O-])c1cc(O)cc(O)c1.[Na+]` [sodium 3,5-dihydroxybenzoate], the “Tn(composition)-Tn(polyester)” value in data set [1] was 7 °C. Besides, in data set [2] (setting [8]), the “% of carboxylate end group” value is recorded as 0%, the “End Groups Carboxylate” value is 0 moles × 10^-6 g^-1 and the “End Groups Total from solution I.V.” value came to 138 moles × 10^-6 g^-1.

For the compound `O=C([O-])c1ccc(O)cc1.[Na+]` [sodium p-hydroxybenzoate], in data set [1], the “Tn(composition)-Tn(polyester)” value stood at 20 °C. In data set [2] (setting [8]), the “% of carboxylate end group” value was 2.7%, the “End Groups --COOH” value is reported as 102 moles × 10^-6 g^-1, the “End Groups --OH” value was 64 moles × 10^-6 g^-1 and the “End Groups Carboxylate” value is 4 moles × 10^-6 g^-1. Also, the “End Groups Total from solution I.V.” value in data set [2] (setting [8]) is reported as 148 moles × 10^-6 g^-1.

Take `O=C([O-])Cc1ccccc1.[Na+]` [sodium phenylacetate]: in data set [3], the “t1/2 (sec) 110° C.” value turned out to be 55 s and the “t1/2 (sec) 120° C.” value worked out at 30 s. For the same compound, in data set [6], the K result was “less than 15”.

Source of the values: patent US4393178A, “Fast crystallizing polyester compositions” (priority 1979, dated 1983).
